Where “and” joins values, the source holds several entries; their conditions need not be identical. Equal values may be shown once.
System: DEN-injected mice on high fat high fructose diet
Test: NASH-HCC model by diethylnitrosamine (DEN) induction: tumors, ALT/AST, liver histology
Format: in vivo, mouse
Design: key to Fibrosis Score, individual mice: 1a: Mild (delicate) zone 3 perisinusoidal fibrosis, requires Masson's trichome stain to identify; 1b: Moderate(dense) zone 3 perisinusoidal fibrosis; 1c: Portal fibrosis only; NAFLD Activity Score, individual mice / NAFLD Activity Score, Avg: scale not given here
Conditions: 4 weeks; for Fibrosis Score, individual mice / NAFLD Activity Score, individual mice / No. of Surface Tumors, individual mice / NAFLD Activity Score, Avg / No. of Surface Tumors, Avg: 100 mg/kg daily oral gavage; for No. of Surface Tumors, individual mice: mice analyzed by Nanostring; for NAFLD Activity Score, Avg / No. of Surface Tumors, Avg: n=8; for liver fibrosis (trichrome stained livers): 100 mg/kg; for NAFLD activity scores (NAS) / liver inflammation scores / liver steatosis and ballooning scores: 30 and 100 mg/kg; for plasma ALT and AST levels: 30 or 100 mg/kg, dose-dependent
Procedure: Materials and Methods. All experiments were carried out using the guidelines approved by the Animal Research Ethics Board at McMaster University, Canada. Male mice obtained from Steinberg Lab Breeding Colony housed within the McMaster University Central Animal Facility were used for these experiments. The test agents were prepared by solubilizing them in a solution of sodium bicarbonate. Compound I-32 and Compound I-1 were administered at a dose of 30 or 100 mg/kg with a dosing volume of 10 ml/kg by daily oral gavage for 4 weeks. This route was selected because it simulates the oral administration route intended for use in human clinical studies and ensures the correct dose of compound is ingested by each animal. Data are expressed as means±the standard error of the mean. Statistical comparisons were carried out using a one-way analysis of variance followed by Dunnett's post hoc test using GraphPad Prism 8 software. A p-value of less than or equal to 0.05 will be used as the criterion of significance.
Experimental Protocol. At 2 weeks of age mice were injected with diethylnitrosamine (DEN) at 25 mg/kg body weight. After weaning mice were housed with littermates and fed a normal chow diet (Teklad 8640 22/5). […] After 7.5 months, mice were bled from the tail vein and plasma alpha-fetoprotein (AFP) levels were determined. AFP is a serum biomarker of HCC progression in humans and mice treated with DEN. At 8 months, mice were divided into 5 groups, based on mean AFP levels and then received a single daily dose of either vehicle (1.5% CMC and 0.2% Tween-20) or 30 mg/kg or 100 mg/kg of Compound I-32 or Compound I-1 via gavage. Throughout the experiments mice were housed in ventilated cage racks with ad libitum access to the food and water. An automatic timing device was used to maintain an alternating 12-hour cycle of light and dark.
After 4 weeks of daily treatments mice were anesthetized by I.P. injection of Ketamine/Xylazine (150 mg/12.4 mg/kg, respectively) in saline. When anesthetic plane has been achieved, 0.5 ml of blood was drawn by cardiac puncture, and plasma was isolated and frozen in liquid nitrogen. The liver was excised intact and rinsed briefly in PBS on ice. The liver was weighed, a photo was taken and the number of visible lesions on the surface of the liver was counted and recorded. A portion of tumor-free liver (˜200 mg, caudate lobe) and up to three individual tumors were removed, flash frozen in liquid nitrogen and stored for molecular analysis. The remainder of the liver was placed in 10% formalin, fixed for 48 hours, and stored in 70% ethanol until it was embedded in paraffin, sectioned, and mounted on slides for histological analysis.
AFP assay. Before starting the treatment, mice were bled from the tail vein and plasma alpha-fetoprotein (AFP) levels were determined using mouse alpha-Feto protein/AFP Duoset ELISA kit (R&D Systems, Inc., MN, USA) as recommended by the manufacturer. 100 μl sample (1:1000 in reagent diluent) was added on each well of 96-well plate coated with mouse AFP capture antibody. Next, the plates were washed with wash buffer and 100 μl detection antibody was added to each well, followed by the Streptavidin HRP and substrate solution. The reaction was stopped by stop solution and the optical density of each well was measured in a microplate reader set to 450 nm. After measuring AFP levels, mice were divided into five groups (>800 ng/ml) and treatment was initiated.
ALT/AST assay. Plasma Alanine Transaminase (ALT) and Aspartate Transaminase (AST) levels were determined using ALT (CAK1002, Cohesion Biosciences) and AST (CAK 1004, Cohesion Biosciences) activity kits following the manufacturer instructions. 10 μl of plasma sample was added with 50 μl of substrate in 96-well plate. The reaction was carried out for 30 minutes at 37° C., detected by dye reagent I and II and absorbance was measured at 520 nm. […]

Row | Structure (SMILES) | reduction of the number of surface tumors (30 mg/kg and 100 mg/kg daily oral) | Fibrosis Score, individual mice | NAFLD Activity Score, individual mice | No. of Surface Tumors, individual mice | NAFLD Activity Score, Avg | No. of Surface Tumors, Avg | liver fibrosis (trichrome stained livers) | NAFLD activity scores (NAS) | liver inflammation scores | liver steatosis and ballooning scores | plasma ALT and AST levels
1 | CC(C)(CCCCc1ccc(CCCCC(C)(C)C(=O)O)cc1)C(=O)O [Compound I-1, 6-[4-(5-carboxy-5-methylhexyl)-phenyl]-2,2-dimethylhexanoic acid] | over 70% | 1a (3×) and 1b (3×) and 1c (2×) | 4 (4×) and 6 (2×) and 3 and 2 | 8 and 6 (2×) and 11 and 10 and 14 and 7 and 3 | 4.1 | 8.1 | fibrosis was significantly reduced | reduced NAFLD activity scores (NAS) at both 30 and 100 mg/kg | without altering inflammation scores | dramatically reduced steatosis | significantly decreased
2 | CC(C)(CCCCc1cccc(CCCCC(C)(C)C(=O)O)c1)C(=O)O [Compound I-32, 6-[3-(5-carboxy-5-methylhexyl)-phenyl]-2,2-dimethylhexanoic acid] |  | 1b (4×) and 1c and 1a (3×) | 2 and 5 and 4 (3×) and 6 and 3 and 1 | 7 and 6 and 3 (2×) and 1 and 30 and 4 and 2 | 3.625 | 7 | fibrosis was significantly reduced | reduced NAFLD activity scores (NAS) at both 30 and 100 mg/kg | without altering inflammation scores | dramatically reduced steatosis | significantly decreased

From patent US11730712B2, “Functionalized long-chain hydrocarbon mono- and di-carboxylic acids and derivatives thereof, and their use for the prevention or treatment of disease” (ESPERVITA THERAPEUTICS, INC., priority 2021, dated 2023)
